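Five concentrations, 48 hours, 96-well plates. GI50 = concentration required for 50% inhibition of growth.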 The source made the active and inactive calls. Cut-off read from the data, not from the text of the source: active = GI50 up to about 1.1 µM and inactive = higher.
Experiments:
Assay in all cases: DTP human tumour cell line panel, 48 h
786-0 = system: 786-0
CAKI-1 = system: CAKI-1
COLO 205 = system: COLO 205
HCC 2998 = system: HCC 2998
HL-60 = system: HL-60
IGROV-1 = system: IGROV-1
K562 = system: K562
MOLT-4 = system: MOLT-4
OVCAR-4 = system: OVCAR-4
OVCAR-5 = system: OVCAR-5
RPMI-8226 = system: RPMI-8226
RXF 393 = system: RXF 393
SF-539 = system: SF-539
SK-MEL-28 = system: SK-MEL-28
UO-31 = system: UO-31
A498 = system: A498
SK-MEL-2 = system: SK-MEL-2

Measured: GI50

CC(=O)N(O)Cc1ccccc1
inactive: 786-0 > 100 µM | CAKI-1 > 100 µM | COLO 205 > 100 µM | HCC 2998 > 100 µM | HL-60 > 100 µM | IGROV-1 > 100 µM | K562 > 100 µM | MOLT-4 > 100 µM | OVCAR-4 > 100 µM | OVCAR-5 > 100 µM | RPMI-8226 > 100 µM | RXF 393 > 100 µM | SF-539 > 100 µM | SK-MEL-28 > 100 µM | UO-31 > 100 µM

NCC(=O)OCN1C(=O)C2C3C=CC(C2C1=O)C1C2C(=O)N(COC(=O)CN)C(=O)C2C31 (stereo unspecified)
inactive: 786-0 19.6 µM | A498 87.5 µM | CAKI-1 32.9 µM | COLO 205 18.2 µM | HL-60 18.2 µM | IGROV-1 40.2 µM | K562 28.6 µM | MOLT-4 16.9 µM | OVCAR-4 26.1 µM | RPMI-8226 28 µM | RXF 393 24 µM | SF-539 18.9 µM | SK-MEL-28 19.5 µM | SK-MEL-2 21.4 µM | UO-31 56.8 µM

C=CCNC(=O)N(CCCCC(NC(C)=O)C(=O)NCc1ccccc1)Cc1ccccc1 (stereo unspecified)
inactive: 786-0 > 100 µM | A498 > 100 µM | CAKI-1 > 100 µM | COLO 205 > 100 µM | HL-60 > 100 µM | IGROV-1 > 100 µM | K562 > 100 µM | MOLT-4 > 100 µM | OVCAR-4 > 100 µM | OVCAR-5 > 100 µM | RPMI-8226 > 100 µM | RXF 393 > 100 µM | SF-539 > 100 µM | SK-MEL-28 > 100 µM | SK-MEL-2 > 100 µM | UO-31 > 100 µM

Cn1c(-c2ccccc2)c/c(=N\NS(C)(=O)=O)c2cc(S(=O)(=O)O)ccc21
inactive: 786-0 > 100 µM | CAKI-1 > 100 µM | COLO 205 > 100 µM | HCC 2998 > 100 µM | HL-60 > 100 µM | IGROV-1 > 100 µM | K562 > 100 µM | MOLT-4 > 100 µM | OVCAR-4 > 100 µM | OVCAR-5 > 100 µM | RPMI-8226 > 100 µM | RXF 393 > 100 µM | SF-539 > 100 µM | SK-MEL-28 > 100 µM | SK-MEL-2 > 100 µM | UO-31 > 100 µM

COc1ccc(NC(=O)C(C)Oc2ccc(OCC3CCCCC3)cc2)cc1 (stereo unspecified)
inactive: 786-0 > 100 µM | A498 > 100 µM | HCC 2998 23.6 µM | HL-60 42.2 µM | IGROV-1 > 100 µM | K562 57.9 µM | MOLT-4 54.5 µM | OVCAR-4 94 µM | RXF 393 > 100 µM | SF-539 > 100 µM | SK-MEL-28 > 100 µM | SK-MEL-2 81.1 µM | UO-31 51.4 µM

CC1(C)CC(C)(C)CC(O)(C2(O)CC(C)(C)CC(C)(C)C2)C1
inactive: 786-0 > 100 µM | COLO 205 > 100 µM | HCC 2998 > 100 µM | HL-60 > 100 µM | IGROV-1 > 100 µM | K562 > 100 µM | MOLT-4 > 100 µM | RPMI-8226 > 100 µM | SF-539 > 100 µM | SK-MEL-28 > 100 µM | UO-31 > 100 µM

Cc1nc2c(n1Cc1ccc(F)cc1)C(=O)c1ccccc1C2=O
inactive: 786-0 13.1 µM | COLO 205 18.9 µM | HCC 2998 87.3 µM | HL-60 5.48 µM | IGROV-1 25.8 µM | K562 5.61 µM | MOLT-4 5.4 µM | OVCAR-4 31.1 µM | RXF 393 14.9 µM | SF-539 6.98 µM | SK-MEL-28 > 100 µM | SK-MEL-2 34.1 µM | UO-31 > 100 µM

CC1=C(c2cc(C(=O)Nc3cccc(C(F)(F)F)c3)ncn2)Sc2ccccc2N1
inactive: 786-0 > 100 µM | A498 > 100 µM | CAKI-1 > 100 µM | COLO 205 > 100 µM | HL-60 > 100 µM | IGROV-1 > 100 µM | K562 > 100 µM | MOLT-4 > 100 µM | OVCAR-4 > 100 µM | RPMI-8226 > 100 µM | SF-539 > 100 µM | SK-MEL-28 > 100 µM | SK-MEL-2 > 100 µM | UO-31 > 100 µM

O=S(=O)(c1ccccc1)C(CN1CCCCC1)S(=O)(=O)c1ccccc1
inactive: 786-0 > 100 µM | CAKI-1 > 100 µM | COLO 205 > 100 µM | HCC 2998 > 100 µM | HL-60 > 100 µM | IGROV-1 > 100 µM | K562 > 100 µM | MOLT-4 > 100 µM | OVCAR-4 > 100 µM | OVCAR-5 > 100 µM | RPMI-8226 > 100 µM | RXF 393 > 100 µM | SF-539 > 100 µM | SK-MEL-28 > 100 µM | SK-MEL-2 > 100 µM | UO-31 > 100 µM

Cc1ccc(NC(=O)C(=O)C(C(=O)c2ccc3ccccc3c2)C2OC(=O)c3ccccc32)cc1C (stereo unspecified)
inactive: 786-0 10 µM | A498 10.4 µM | CAKI-1 8.57 µM | COLO 205 16.6 µM | HCC 2998 2.77 µM | HL-60 8.87 µM | IGROV-1 18.7 µM | K562 13.8 µM | MOLT-4 3.3 µM | OVCAR-4 13.1 µM | OVCAR-5 23.9 µM | RPMI-8226 4.7 µM | SF-539 3.02 µM | SK-MEL-28 10.3 µM | SK-MEL-2 15.5 µM | UO-31 11.9 µM

CN(C)c1ccc(/C=C(\NC(=O)c2ccccc2)c2nc3ccc4c(c3[nH]2)C(=O)c2ccccc2C4=O)cc1
inactive: 786-0 25.4 µM | A498 6.61 µM | CAKI-1 9.1 µM | COLO 205 > 100 µM | HCC 2998 > 100 µM | IGROV-1 11.4 µM | K562 26.9 µM | MOLT-4 2.65 µM | OVCAR-4 47.2 µM | OVCAR-5 > 100 µM | RPMI-8226 3.18 µM | RXF 393 18.9 µM | SF-539 36.5 µM | SK-MEL-28 27.5 µM | SK-MEL-2 61.8 µM | UO-31 1.33 µM

CC1CC[C@]2(C(=O)O)CCC3(C)C(=CC(=O)C4[C@@]5(C)CCC(=O)C(C)(C)C5CC[C@]43C)[C@@H]2[C@H]1C (stereo partly specified)
inactive: 786-0 31.8 µM | A498 32.4 µM | CAKI-1 39.8 µM | COLO 205 17.6 µM | HL-60 4.75 µM | IGROV-1 26.9 µM | K562 23.6 µM | MOLT-4 11.5 µM | OVCAR-4 35.2 µM | RXF 393 17.8 µM | SF-539 18.9 µM | SK-MEL-28 18 µM | UO-31 12.5 µM

COc1ccc(OC)c2[nH]c(Sc3c([N+](=O)[O-])ncn3C)nc12
inactive: 786-0 29.3 µM | A498 31 µM | CAKI-1 17.1 µM | COLO 205 11.6 µM | HCC 2998 20.3 µM | IGROV-1 24.2 µM | OVCAR-4 22.9 µM | OVCAR-5 94.6 µM | RXF 393 25.2 µM | SF-539 18 µM | SK-MEL-28 24.3 µM | UO-31 28.6 µM

— ChEMBL document CHEMBL1201862, “PubChem BioAssay data set” (2004)
